Laboratory results: patent US20120129897A1, “BIS HETEROARYL INHIBITORS OF PRO-MATRIX METALLOPROTEINASE ACTIVATION” (priority 2010, published 2012)
Structures can show the parent of a compound that is named as a salt.

Legend:
[1] = target: T1, proMMP13(1-268) (SEQ ID NO:7) (Homo sapiens, UniProt P45452); experiment: ThermoFluor binding assay with proMMP13(1-268); design: 6x-histidine (C); made in house
Description: (§1) The ThermoFluor® (TF) assay is a 384-well plate-based binding assay that measures thermal stability of proteins (Biomol Screen 2001, 6, 429-40; Biochemistry 2005, 44, 5258-66). The experiments were carried out using instruments available from Johnson & Johnson Pharmaceutical Research & Development, LLC. TF dye used in all experiments was […] (1,8-ANS) (Invitrogen: A-47).
(§2) Compounds were arranged in a pre-dispensed plate (Greiner Bio-one: 781280), wherein compounds were serially diluted in 100% DMSO across 11 columns within a series. Columns 12 and 24 were used as DMSO reference and contained no compound. For multiple compound concentration-response experiments, the compound aliquots ([…]) were robotically predispensed directly into black 384-well polypropylene PCR microplates (Abgene: TF-0384/k) using a Cartesian Hummingbird liquid handler (DigiLab, Holliston, Mass.). Following compound dispense, protein and dye solutions were added to achieve the final assay volume of 3 μL. The assay solutions were overlayed with 1 μL of silicone oil (Fluka, type DC 200: 85411) to prevent evaporation.
(§3) Assay plates were robotically loaded onto a thermostatically controlled PCR-type thermal block and then heated from 40 to 90° C. at a ramp-rate of 1° C./min for all experiments. Fluorescence was measured by continuous illumination with UV light (Hamamatsu LC6) supplied via fiber optics and filtered through a band-pass filter (380-400 nm; >60D cutoff). Fluorescence emission of the entire 384-well plate was detected by measuring light intensity using a CCD camera (Sensys, Roper Scientific) filtered to detect 500±25 nm, resulting in simultaneous and independent readings of all 384 wells. A single image with 20-sec exposure time was collected at each temperature, and the sum of the pixel intensity in a given area of the assay plate was recorded vs temperature and fit to standard equations to yield the Tm (J Biomol Screen 2001, 6, 429-40).
(§4) Thermodynamic parameters necessary for fitting compound binding for each proMMP were estimated by differential scanning calorimetry (DSC) and from ThermoFluor® data. The heat capacity of unfolding for each protein was estimated from the molecular weight and from ThermoFluor® dosing data.
The proMMP13(1-268) (SEQ ID NO:7) protein sample preparations included a desalting buffer exchange step via a PD-10 gravity column (GE Healthcare). The desalting buffer exchange was performed prior to diluting the protein to the final assay concentration of 3.5 μM. The concentration of proMMP13(1-268) (SEQ ID NO:7) was estimated spectrophotometrically based on a calculated extinction coefficient of ε280=37000 M^−1cm^−1, a calculated molecular weight of 30.8 kDa, and calculated pI of 5.33. ThermoFluor® reference conditions were defined as follows: 100 μg/mL proMMP13(1-268) (SEQ ID NO:7), 25 μM 1,8-ANS, pH 7.0 Buffer (50 mM HEPES pH 7.0, 100 mM NaCl, 0.001% Tween-20, 2.5 mM MgCl2, 300 μM CaCl2). The thermodynamic parameters for proMMP13(1-268) (SEQ ID NO:7) are as follows: Tm (° C.)=67 (+/−0.1), ΔUH(Tm) (cal mol^−1)=107000(+/−5000), ΔUS(Tm) (cal mol^−1 K^−1)=318, ΔUCp (cal mol^−1 K^−1)=2600.

[2] = target: T2, proMMP9(20-445;ΔFnII) (SEQ ID NO:6) (Homo sapiens, UniProt P14780, DEL216-390); experiment: ThermoFluor binding assay with proMMP9(20-445;ΔFnII)
T2 construct: start methionine (N); made in house; host or cells: E. coli BL21(DE3) RIL
T2 sequence (P14780 with tags, fused parts or gaps DEL216-390): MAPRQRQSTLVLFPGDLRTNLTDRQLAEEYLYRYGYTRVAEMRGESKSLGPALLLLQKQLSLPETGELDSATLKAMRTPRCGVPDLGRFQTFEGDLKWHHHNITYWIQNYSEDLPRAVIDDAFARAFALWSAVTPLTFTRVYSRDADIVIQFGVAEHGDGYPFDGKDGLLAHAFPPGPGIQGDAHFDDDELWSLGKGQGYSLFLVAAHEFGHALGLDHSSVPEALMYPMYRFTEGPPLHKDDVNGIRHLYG
Description: as §1, §2, §3, §4
The protein sample preparations included a desalting buffer exchange step via a PD-10 gravity column (GE Healthcare). The desalting buffer exchange was performed prior to diluting the protein to the final assay concentration of 2.8 μM proMMP9(20-445;ΔFnII) (SEQ ID NO:6). The concentration of proMMP9(20-445;ΔFnII) (SEQ ID NO:6) was determined spectrophotometrically based on a calculated extinction coefficient of ε280=39880 M^−1cm^−1, a calculated molecular weight of 28.2 kDa, and calculated pI of 5.5. ThermoFluor® reference conditions were define as follows: 80 μg/mL (2.8 μM) proMMP9(20-445;ΔFnII) (SEQ ID NO:6), 50 μM 1,8-ANS, pH 7.0 Buffer (50 mM HEPES pH 7.0, 100 mM NaCl, 0.001% Tween-20, 2.5 mM MgCl2, 300 μM CaCl2). The thermodynamic parameters for proMMP9(20-445;ΔFnII) (SEQ ID NO:6) are as follows: Tm (° C.)=72 (+/−0.1), ΔUH(Tm) (cal mol^−1)=160000(+/−5000), ΔUS(Tm) (cal mol^−1 K^−1)=434, ΔUCp ([…])=2400.

[3] = target: T3, full-length proMMP9(1-707) (SEQ ID NO:1) (Homo sapiens, UniProt P14780, R574P); experiment: proMMP9/MMP3 P126 Activation Assay; assay type: biochemical; settings: 20 nM proMMP9, 20 nM MMP3, 80 min 37° C.
T3 construct: made in house; host or cells: HEK293 (proMMP9, secreted); E. coli (MMP3)
Description: The reaction volume was 50 μL. […] Reactivity of residual MMP3 towards P-126 substrate was minimal under these conditions.

[4] = target: T4, proMMP9(67-444;ΔFnII) (SEQ ID NO:5) (Homo sapiens, UniProt P14780, DEL216-390); experiment: ThermoFluor binding assay with proMMP9(67-444;ΔFnII)
T4 construct: start methionine (N); made in house; host or cells: E. coli BL21(DE3) RIL
T4 sequence (P14780 with tags, fused parts or gaps DEL216-390): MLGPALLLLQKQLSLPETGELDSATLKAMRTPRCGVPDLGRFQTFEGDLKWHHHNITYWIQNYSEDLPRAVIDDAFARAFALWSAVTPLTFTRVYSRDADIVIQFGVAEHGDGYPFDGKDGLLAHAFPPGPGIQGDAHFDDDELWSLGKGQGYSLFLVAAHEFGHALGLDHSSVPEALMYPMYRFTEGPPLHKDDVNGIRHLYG
Description: as §1, §2, §3, §4
The protein sample preparations had to include a desalting buffer exchange step via a PD-10 gravity column (GE Healthcare). The desalting buffer exchange was performed prior to diluting the protein to the final assay concentration of 3.5 μM proMMP9(67-444;ΔFnII) (SEQ ID NO:5). The concentration of proMMP9(67-444;ΔFnII) (SEQ ID NO:5) was determined spectrophotometrically based on a calculated extinction coefficient of ε280=33900 M^−1cm^−1, a calculated molecular weight of 22.6 kDa, and calculated pI of 5.20. ThermoFluor® reference conditions were defined as follows: 80 μg/mL (3.5 μM) proMMP9(67-444;ΔFnII) (SEQ ID NO:5), 50 μM 1,8-ANS, pH 7.0 Buffer (50 mM HEPES pH 7.0, 100 mM NaCl, 0.001% Tween-20, 2.5 mM MgCl2, 300 μM CaCl2). The thermodynamic parameters for proMMP9(67-444;ΔFnII) (SEQ ID NO:5) are as follows: Tm (° C.)=63 (+/−0.1), ΔUH(Tm) (cal mol^−1)=105000(+/−5000), ΔUS(Tm) (cal mol^−1 K^−1)=[…], ΔUCp (cal mol^−1 K^−1)=2000.

[5] = target: T1, proMMP13(1-268) (SEQ ID NO:7); experiment: ProMMP13/Plasmin P126 Activation Assay; assay type: biochemical; design: 6x-histidine (C); made in house; host or cells: HEK293 (transient transfection, secreted); settings: 8 nM proMMP13, 16 nM plasmin, 40 min 37° C.
Description: On the day of assay, proMMP13(1-268) (SEQ ID NO:7) purified from HEK293 cells and plasmin were diluted to 160 nM and 320 nM, respectively, in assay buffer. The reaction volume was 50 μL. […] The plate was sealed and incubated for 40 min at 37° C. […] Plasmin was not reactive towards P-126 substrate under these conditions.

T3 sequence (P14780 20-707 R574P): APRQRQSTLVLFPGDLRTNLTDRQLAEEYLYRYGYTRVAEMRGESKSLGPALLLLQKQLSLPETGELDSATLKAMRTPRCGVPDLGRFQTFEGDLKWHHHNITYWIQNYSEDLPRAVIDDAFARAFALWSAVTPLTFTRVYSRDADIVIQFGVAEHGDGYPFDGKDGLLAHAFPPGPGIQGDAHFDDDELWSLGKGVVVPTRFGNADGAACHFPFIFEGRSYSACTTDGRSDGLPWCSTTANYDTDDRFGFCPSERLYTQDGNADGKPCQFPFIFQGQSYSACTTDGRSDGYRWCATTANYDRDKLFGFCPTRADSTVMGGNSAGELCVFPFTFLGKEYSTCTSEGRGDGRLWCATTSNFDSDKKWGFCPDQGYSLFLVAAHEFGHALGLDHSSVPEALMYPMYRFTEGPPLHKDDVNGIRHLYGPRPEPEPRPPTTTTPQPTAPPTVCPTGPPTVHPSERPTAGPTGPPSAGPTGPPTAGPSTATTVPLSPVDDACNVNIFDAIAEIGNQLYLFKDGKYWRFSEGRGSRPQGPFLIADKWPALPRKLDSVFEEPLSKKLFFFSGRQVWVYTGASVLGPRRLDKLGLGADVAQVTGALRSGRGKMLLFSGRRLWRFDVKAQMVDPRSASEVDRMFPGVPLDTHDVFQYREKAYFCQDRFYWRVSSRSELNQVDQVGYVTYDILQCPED

Row | Kd [1] | Kd [2] | IC50 [3] | Kd [4] | IC50 [5] | Structure (SMILES)
1 | 5.1 µM | 4.8 µM | 0.79 µM | > 95 µM |  | Cc1nc(-c2csc(Nc3cc(C(N)=O)ccc3OC(C)C)n2)c(C)[nH]1 [Example 3, 3-[4-(2,5-Dimethyl-1H-imidazol-4-yl)-thiazol-2-ylamino]-4-isopropoxy-benzamide.TFA]
2 | 1.6 µM | 4.7 µM | 2.3 µM | 8.6 µM |  | Cc1nc(C)n(C)c1-c1csc(Nc2cc(S(N)(=O)=O)ccc2OC(C)C)n1 [Example 1, 4-Isopropoxy-3-[4-(2,3,5-trimethyl-3H-imidazol-4-yl)-thiazol-2-ylamino]-benzenesulfonamide]
3 |  | 5.9 µM | 1.9 µM | 42 µM |  | Cc1nc(C)n(C)c1-c1csc(Nc2cc(C(N)=O)ccc2OC(C)C)n1 [Example 7, 4-Isopropoxy-3-[4-(2,3,5-trimethyl-3H-imidazol-4-yl)-thiazol-2-ylamino]-benzamide.TFA]

Further lines, the compound ahead of its results:

Row | Structure (SMILES) | Kd [1] | Kd [2] | IC50 [3] | Kd [4] | IC50 [5]
4 | Cc1nc(C)c(-c2csc(Nc3cc(C(N)=O)ccc3OC(C)C)n2)o1 [Example 6, 3-[4-(2,4-Dimethyl-oxazol-5-yl)-thiazol-2-ylamino]-4-isopropoxy-benzamide] | 6.1 µM | 0.17 µM | 0.27 µM | 7.2 µM | 6 µM
5 | CCOc1ccc(C#N)cc1Nc1nc(-c2cnn(C)c2)cs1 [Example 5, 4-Ethoxy-3-[4-(1-methyl-1H-pyrazol-4-yl)-thiazol-2-ylamino]-benzonitrile] | 17 µM | 8.9 µM |  | 14 µM | 
6 | Cc1nc(-c2csc(Nc3cc(S(N)(=O)=O)ccc3OC(C)C)n2)c(C)n1C [Example 2, 4-Isopropoxy-3-[4-(1,2,5-trimethyl-1H-imidazol-4-yl)-thiazol-2-ylamino]-benzenesulfonamide.TFA] | 10 µM | 12 µM | ~6 µM | 33.2 µM | 
7 | CCOc1ccc(C#N)cc1Nc1nc(-n2cc(C)nc2C)cs1 [Example 4, 3-[4-(2,4-Dimethyl-imidazol-1-yl)-thiazol-2-ylamino]-4-ethoxy-benzonitrile] | > 95 µM | 76 µM | ~5 µM | 36 µM | 
